Experimental data reported in US20240016784A1, “Y BOX BINDING PROTEIN 1 INHIBITORS” (Oregon Health & Science University, priority 2020, published 2024).

Tests used:
PSMB2 = target: T1, PSMB2 (Homo sapiens, UniProt P49721); assay: Cellular Thermal Shift Assay (CETSA) in OVCAR8 cells; type: binding; settings: SU056 2.5 μM, 1.5 h, read-out: increase in thermal stability (Tm shift) of PSMB2
T1 construct: endogenous in cells; host or cells: OVCAR8
Method: (§1) The cellular thermal shift assay (CETSA) is based on the principle of protein-ligand interactions causing a shift in protein thermal stability (Savitski et al., 2014). When a protein interacts with ligand, its thermal stability increases, and this principle allows identification of which protein targets that are engaged by small molecules or drug candidates. We used this assay to identify protein targets of SU056. OVCAR8 cells were treated with SU056 (2.5 μM) for 1.5 h, and protein lysates were analyzed for a thermal shift. The heat maps represent the thermal stability of 804 soluble proteins in the presence and absence of SU056 compare with 37° C. (FIG. 3A).
(§2) Cellular Thermal Shift Assay (CETSA): The assay was performed as previously described (Savitski et al., 2014). Briefly, OVCAR8 cells were treated with vehicle (DMSO) or SU056 (2.5 μM) at 70-80% confluency for 1.5 h. Cells were harvested and washed with 1×PBS twice. Cells were pelleted and resuspended in PBS. 10 different PCR tubes with 1×10^6 cells/tube (in 100 μL PBS) were prepared for both the groups. Tubes were exposed to respective temperatures (37, 41, 44, 47, 50, 53, 56, 59, 63, 67° C.) for 3 min using a thermal cycler (Bio-Rad, CA, USA) followed by 2 min incubation at room temperature.

TMSB10 = target: T2, TMSB10 (Homo sapiens, UniProt P63313); assay: as above; type: binding; settings: SU056 2.5 μM, 1.5 h, read-out: increase in thermal stability (Tm shift) of TMSB10
T2 construct: endogenous in cells; host or cells: OVCAR8
T2 sequence (P63313 whole entry): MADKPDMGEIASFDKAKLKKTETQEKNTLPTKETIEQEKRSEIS
Method: as §1, §2

TMSB4X = target: T3, TMSB4X (Homo sapiens, UniProt P62328); assay: as above; type: binding; settings: SU056 2.5 μM, 1.5 h, read-out: increase in thermal stability (Tm shift) of TMSB4X
T3 construct: endogenous in cells; host or cells: OVCAR8
T3 sequence (P62328 whole entry): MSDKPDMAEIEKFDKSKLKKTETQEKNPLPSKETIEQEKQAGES
Method: as §1, §2

[1] = system: efflux of paclitaxel in OC cells; assay: Paclitaxel efflux assay; type: cell-based; settings: SU056 co-treatment vs only paclitaxel-treated cells
From the text: YB-1 is involved in the emergence of cisplatin and taxane drug resistance (Kang et al., 2013, Mo et al., 2016). Therefore, we tested whether SU056 synergizes with chemotherapies such as paclitaxel to modulate YB-1. To measure this, we performed a dose dependent combination study of SU056 and paclitaxel. […] ABCB1/MDR1 drug efflux pumps are also known to play an important downstream role with YB-1 in increased taxol efflux and subsequent TR in cancer. To evaluate whether SU056 affects drug efflux, we used Alexa Fluor-488-tagged paclitaxel to measure taxol efflux in vitro. […] Efflux is primarily driven by the ATP-binding cassette transporters (ABC pumps) present on the cell surface (Genovese et al., 2017). We examined the expression of MDR1 and YB-1 in OVCAR8 cells treated with vehicle, SU056, and paclitaxel combinations via Western blot.
Paclitaxel efflux assay: OC cells were treated with 5 nM Oregon Green™ 488-conjugated paclitaxel (Molecular Probes, #P22310) for 1 h. Cells were washed and incubated in phenol red-free DMEM media supplemented with 10% FBS. After each respective time point (30, 60, 120, 180 minutes), the media was collected and centrifuged to remove floating cells. The fluorescence intensity of efflux paclitaxel in media was read at Ex 496 and Em 524 using a multimode plate reader.
Combination index values for paclitaxel and SU056. […] FIG. 7C) Immunoblotting of YB-1 and MDR1. […]

[2] = Liver microsomes metabolic profiling; type: in vitro ADME
From the text: FIGS. 15A-15E. […] SU056 treatment at increasing concentrations dose not challenge the dietary behavior as reflected by change in body weight FIG. 15A) Mice and FIG. 15B) Rat. […] Liver microsomes were used for the purpose of metabolic profiling.

[3] = system: protein translation associated molecules; assay: Western blot of translation associated molecules in TNBC cells; type: cell-based; settings: 12 and 24 hr; MDA-MB-231, MDA-MB-468, SUM 159
Method: FIGS. 12A-12C. TNBC cells were treated for 12 and 24 hr and total cell lysate were prepared. SDS-PAGE and western blot analyses were performed for translation associated molecules. Beta-actin were probed to ensure equal protein loading.

[4] = system: MDA-MB-231, MDA-MB-468 and SUT1151-PDX xenografts; assay: Tumor xenografts of TNBC models; type: in vivo, Mice; settings: SU056 50 mg/kg, oral gavage
Method: FIGS. 13A-13I. […] Mice were subcutaneously injected with MDA-MB-231 (2×10^6 cells), MDA-MB-468 (5×10^6 cells) and patient derived xenograft SUT1151-PDX (2×10^6 cells) and drug treatment started when tumor reached 100 mm^3. Mice were given either vehicle (40% PEG in saline) or SU056 (50 mg/kg) through oral route using oral gavage. FIG. 13A) Tumor volume (MDA-MB-231) as a function of time. FIG. 13B) Tumor weight (MDA-MB-231) at the end of the study. FIG. 13C) Body weight (MDA-MB-231) as a function of time. FIG. 13D) Tumor volume (MDA-MB-468) as a function of time. FIG. 13E) Tumor weight (MDA-MB-468) at the end of the study. FIG. 13F) Body weight (MDA-MB-468) as a function of time. FIG. 13G) Representative images of tumor (MDA-MB-231) at the end of study. FIG. 13H) Representative images of tumor (MDA-MB-468) at the end of study. FIG. 13I) Tumor volume (SUT1151-PDX) as a function of time. FIG. 13B) Tumor weight (SUT1151-PDX) at the end of the study. FIG. 13C) Body weight (SUT1151-PDX) as a function of time.

For `O=C1OCC2=C1C(c1cccc(F)c1)c1cc3c(cc1N2CCO)OCO3` (stereo not shown) [SU056, 9-(3-fluorophenyl)-5-(2-hydroxyethyl)-6,9-dihydro-[1,3]dioxolo[4,5-g]furo[3,4-b]quinolin-8(5H)-one], the ΔTm at 2.5 µM (PSMB2) was 5.36 ± 0.76 °C, the ΔTm at 2.5 µM (TMSB10) was 5.89 ± 1.18 °C and the ΔTm at 2.5 µM (TMSB4X) was 4.43 ± 1.31 °C. For the same compound, the “efflux of Alexa Fluor-488-tagged paclitaxel” value [1] was “significantly inhibits the efflux of paclitaxel”, the half-life [2] was 40 min and the “protein translation associated molecules (western blot)” value [3] was “inhibited the protein translation associated molecules”. The “tumor xenograft growth, TNBC models” value [4] was “inhibit tumor xenograft of TNBC models”.
